In brackets after ≈: the same amount, converted by molar mass. Entries after “also recorded” stand apart in the source; their conditions may differ. Structures can show the parent of a compound that is named as a salt. Where two headings read alike, the source gives them in different places. Each block holds one compound with its values, some of them ahead of it.
Tests used:
[1] = Humidity exposure at 75% relative humidity / 40° C. for one week with XRPD; details: 75% RH / 40° C.
Experimental: The Sesqui-Succinate obtained in Example 2.1 was exposed to 75% relative humidity at 40° C. for one week. The samples were placed in a 4 mL vial covered with a Kimwipe® and then placed in a 20 mL vial containing 3-4 mL saturated NaCl in water. The 20 mL vials were sealed and held at 40° C. Solids were collected for XRPD analysis after one week.
HCl salt Monohydrate Form A was placed at 40° C./75% relative humidity for one week. About 10 mg sample was placed in a 4 mL vial covered with a Kimwipe®. The vial was then placed inside a 20 mL sealed vial containing saturated aqueous sodium chloride.

[2] = Solubility at 37° C. in water and simulated fluids (FaSSIF, FaSSGF); assay type: physicochemical; details: for Solubility at 37° C. FaSSGF: fasted state simulated gastric fluid; for Solubility at 37° C. FaSSIF: fasted state simulated intestinal fluid
Text: Crystalline salts were characterized and evaluated for viability based on melting point, crystallinity, stability on drying and humidity exposure, water solubility, polymorphism, and acceptability of counter-ion.

[3] = Drying and humidity exposure (>90% RH) with XRPD; details: for physical stability on humidity exposure: >90% RH, overnight / one day; for physical stability on humidity exposure / stability on drying and humidity exposure: XRPD; for physical stability in humid environment, prolonged: >90% relative humidity, days to one week; for stability on drying and humidity exposure: dried under vacuum at 50° C., then >90% RH one day
Experimental: XRPD analysis was done in three stages. XRPD of the wet cake was done for all samples (where solids were observed). Unique solids were then left on XRPD plates and dried under vacuum at 50° C. for at least 3 hours. XRPD of unique dry solids was then done. Solids were then exposed to >90% relative humidity for one day and XRPD on resulted solids was done. The humid environment was generated by placing a beaker of saturated potassium sulfate in water in a sealed container. All XRPD patterns were compared to counter ion XRPD patterns and known free molecule patterns.
A crystalline form of the free base was exposed to high humidity (>90% RH) overnight. The humid environment was generated by placing a beaker of saturated potassium sulfate in water in a sealed container.

[4] = Solubility in organic solvent systems at room temperature; assay type: physicochemical; details: organic solvent or mixture, most organic solvents tested
[5] = Dynamic Vapor Sorption (DVS); assay type: physicochemical; details: for DVS Mass Change: between 2 and 95% relative humidity at 25° C.; for XRPD after DVS measurement: after 2-95% RH cycle
Experimental: Dynamic Vapor Sorption (DVS) was done using a DVS Intrinsic 1. The sample was loaded into a sample pan and suspended from a microbalance. A typical sample mass for DVS measurement is 25 mg. Nitrogen gas bubbled through distilled water provides the desired relative humidity. The sample was held for a minimum of 5 min at each level and only progressed to the next humidity level if there was <0.002% change in weight between measurements (interval: 60 seconds) or […] had elapsed. A typical measurement comprises the steps: • 1—Equilibrate at 50% RH • 2—50% to 2%. (50%, 40%, 30%, 20%, 10% and 2%) • a. Hold minimum of 5 mins and maximum of 60 minutes at each humidity. • The pass criteria is less than 0.002% change • 3—2% to 95% (2%, 10%, 20%, 30%, 40%, 50%, 60%, 70%, 80%, 90%, 95%) • a. Hold minimum of 5 mins and maximum of 60 minutes at each humidity.
The pass criteria is less than 0.002% change • 4—95% to 2% (95%, 80%, 70%, 60%, 50%, 40%, 30%, 20%, 10%, 2%) • a. Hold minimum of 5 mins and maximum of 60 minutes at each humidity. • The pass criteria is less than 0.002% change • 5—2% to 50% (2%, 10%, 20%, 30%, 40%, 50%) • a. Hold minimum of 5 mins and maximum of 60 minutes at each humidity. • The pass criteria is less than 0.002% change

[6] = Exposure to dry conditions and re-humidification with XRPD; assay type: physicochemical
Experimental: The 1:1 Compound (I) Crystalline HCl salt Monohydrate obtained from Example 3.1 was exposed to various drying conditions and then analyzed by XRPD.
The conditions were: (1) room temperature in vial containing P2O5 at 50° C., (2) 60° C. under vacuum, and (3) heating to 140° C. in DSC.
The HCl salt exposed to P2O5 at 50° C. was sampled for XRPD at the 7 day mark.

[7] = Variable humidity and variable temperature XRPD (VH-XRPD, VT-XRPD); assay type: physicochemical; details: for variable humidity XRPD: change of crystalline structure: 0-90% RH; for variable temperature XRPD: change of crystalline structure: ambient to 160° C.
Experimental: Powder X-ray diffraction was done using a Rigaku MiniFlex 600 or a Bruker D8 Advance equipped with Lynxeye detector in reflection mode (i.e. Bragg-Brentano geometry). Samples were prepared on Si zero-return wafers. A typical scan is from 2θ of 4 to 30 degrees, with step size 0.05 degrees over five minutes with 40 kV and 15 mA. A high-resolution scan is from 2θ of 4 to 40 degrees, with step size 0.05 degrees over thirty minutes with 40 kV and 15 mA. Typical parameters for XRPD are listed below.

[8] = listed as free base of Compound (I)
[9] = listed as HCl salt Monohydrate Form A
[10] = listed as Compound (I) Sesqui-Succinate Form A
[11] = listed as Compound (I) Sesqui-Succinate salt Form A

SMILES: CCOC1(c2ccc(-c3cc4c(N5CCN(C(=O)O[C@@H]6CCOC6)CC5)ccnn4c3)nc2)CCN(C(C)C)CC1 [Amorphous solid (Compound (I) Sesqui-Succinate)]
- physical stability after one week humidity exposure [1]: crystalline Form A

SMILES: CCOC1(c2ccc(-c3cc4c(N5CCN(C(=O)O[C@@H]6CCOC6)CC5)ccnn4c3)nc2)CCN(C(C)C)CC1 [Benzoate]
- water solubility (in words) ([2]; salt screening evaluation): poor water solubility
- physical stability on humidity exposure ([3]; listed as benzoic acid): did not deliquesce

SMILES: CCOC1(c2ccc(-c3cc4c(N5CCN(C(=O)O[C@@H]6CCOC6)CC5)ccnn4c3)nc2)CCN(C(C)C)CC1 [Besylate]
- physical stability on humidity exposure [3]: deliquesced
- physical stability on humidity exposure ([3]; listed as besylate): deliquescence

SMILES: CCOC1(c2ccc(-c3cc4c(N5CCN(C(=O)O[C@@H]6CCOC6)CC5)ccnn4c3)nc2)CCN(C(C)C)CC1 [Compound (I)]
- Solubility at 37° C. FaSSGF ([2]; listed as Freebase): 7.29 mg/mL (≈ 13 mM)
- Solubility at 37° C. FaSSGF ([2]; listed as freebase): ~17 mg/mL (≈ 30.2 mM)
- Solubility at 37° C. FaSSIF ([2]; listed as Freebase): 17.9 mg/mL (≈ 31.8 mM)
- Solubility at 37° C. FaSSIF ([2]; listed as freebase): ~7 mg/mL (≈ 12.4 mM)
- Solubility at 37° C. Water ([2]; water, listed as freebase): 0.08 mg/mL (≈ 0.142 mM)
- solubility [4]: > 200 mg/mL
- physical stability on humidity exposure ([3]; listed as free base): lost some crystallinity
- physical stability in humid environment, prolonged ([3]; listed as free base): deliquesced
- physical stability in humid environment, prolonged [3, 8]: physically unstable
- physical stability in humid environment, prolonged ([3]; listed as freebase): turned into a sticky gum
- behaviour on exposure to water [3, 8]: tends to gum
- behaviour on exposure to water ([3]; listed as freebase): gums in water
- DVS mass change occurring above 70% relative humidity ([5]; 25° C., above 70% RH): 0.46-0.53 wt. %
- DVS Mass Change ([5]; listed as Freebase): 0.88-0.92 wt. %
- DVS Mass Change [5, 8]: 0.88-0.92 wt. %

SMILES: CCOC1(c2ccc(-c3cc4c(N5CCN(C(=O)O[C@@H]6CCOC6)CC5)ccnn4c3)nc2)CCN(C(C)C)CC1 [Form D]
- physical stability after one week humidity exposure [1]: converted to Form A (monohydrate)
- physical stability on humidity exposure [3]: converted to Form A (monohydrate)
- form conversion on exposure to ambient conditions ([6]; bench, 22-23° C., 28-35% RH, 2.25 hours): converted to Form A

SMILES: CCOC1(c2ccc(-c3cc4c(N5CCN(C(=O)O[C@@H]6CCOC6)CC5)ccnn4c3)nc2)CCN(C(C)C)CC1 [Form I]
- physical stability on humidity exposure [3]: partially converted to Form A

SMILES: CCOC1(c2ccc(-c3cc4c(N5CCN(C(=O)O[C@@H]6CCOC6)CC5)ccnn4c3)nc2)CCN(C(C)C)CC1 [Mono-HCl Form A]
- solubility in water and in simulated gastric fluids (in words) [2]: good solubility
- Solubility at 37° C. FaSSGF [2]: 6.96 mg/mL
- Solubility at 37° C. FaSSGF ([2]; listed as mono-HCl salt): > 30 mg/mL
- Solubility at 37° C. FaSSIF [2]: 30.9 mg/mL
- Solubility at 37° C. FaSSIF ([2]; listed as mono-HCl salt): ~7 mg/mL
- Solubility at 37° C. Water ([2]; water): 33.4 mg/mL
- Solubility at 37° C. Water ([2]; water, listed as mono-HCl salt): > 30 mg/mL
- physical stability after one week humidity exposure [1, 9]: minor peak shifts
- physical stability on humidity exposure ([3]; listed as HCl (1 eq.)): did not deliquesce
- variable humidity XRPD: change of crystalline structure [7, 9]: small shift
- variable temperature XRPD: change of crystalline structure [7, 9]: does not appear to collapse and/or re-arrange
- XRPD after exposure to drying conditions ([6]; P2O5 at 50° C., 60° C. under vacuum, heating to 140° C. in DSC): a new XRPD pattern was observed
- DVS mass change occurring below 20% relative humidity ([5]; 25° C., below 20% RH): 0.99-1.11 wt. %
- XRPD after DVS measurement [5, 9]: extra peaks were observed
- DVS Mass Change [5]: 1.30-1.43 wt. %
- DVS Mass Change [5, 9]: 1.30-1.43 wt. %
- hygroscopicity (in words) ([5]; listed as 1:1 hydrochloric acid salt): non-hygroscopic

Now from value to compound, other results behind:

- physical stability on humidity exposure ([3]; listed as salicylic acid): did not deliquesce
SMILES: CCOC1(c2ccc(-c3cc4c(N5CCN(C(=O)O[C@@H]6CCOC6)CC5)ccnn4c3)nc2)CCN(C(C)C)CC1 [Salicylate]

- solubility in water and in simulated gastric fluids (in words) [2]: good solubility
- Solubility at 37° C. FaSSGF [2]: >25.9 mg/mL
- Solubility at 37° C. FaSSIF [2]: >22.2 mg/mL
- solubility in water and simulated fluids (all fluids) ([2]; in all fluids): > 22 mg/mL
- Solubility at 37° C. Water ([2]; water): >34.0 mg/mL
- solubility ([2]; water, FaSSIF and FaSSGF (all fluids), thermodynamic from solid, in all fluids): > 22 mg/mL
- physical stability after one week humidity exposure [1, 10]: physically stable by XRPD
- physical stability on humidity exposure ([3]; listed as succinic acid): did not deliquesce
- stability on drying and humidity exposure [3]: stable on drying and humidity exposure
- variable humidity XRPD: change of crystalline structure [7, 11]: no change in the crystalline structure
- variable temperature XRPD: change of crystalline structure [7, 11]: no change in the crystalline structure
- DVS mass change occurring above 80% relative humidity ([5]; 25° C., above 80% RH): 0.34-0.35 wt. %
- XRPD after DVS measurement [5, 10]: remained as Form-A
- DVS Mass Change [5]: 0.59-0.60 wt. %
- DVS Mass Change [5, 10]: 0.59-0.60 wt. %
- hygroscopicity (in words) ([5]; listed as 1.5:1 succinic acid salt): non-hygroscopic
SMILES: CCOC1(c2ccc(-c3cc4c(N5CCN(C(=O)O[C@@H]6CCOC6)CC5)ccnn4c3)nc2)CCN(C(C)C)CC1 [Succinate Form A]
- hygroscopicity (in words) [5]: less hygroscopic than the mono-HCl salt and freebase

- physical stability on humidity exposure [3]: deliquesced
- physical stability on humidity exposure ([3]; listed as 2:1 HCl): deliquescence
SMILES: CCOC1(c2ccc(-c3cc4c(N5CCN(C(=O)O[C@@H]6CCOC6)CC5)ccnn4c3)nc2)CCN(C(C)C)CC1 [bis-HCl]

- stability on drying and humidity exposure [3]: stable on drying and humidity exposure
SMILES: CCOC1(c2ccc(-c3cc4c(N5CCN(C(=O)O[C@@H]6CCOC6)CC5)ccnn4c3)nc2)CCN(C(C)C)CC1 [fumarate Form B]

- solubility in water and in simulated gastric fluids (in words) [2]: good solubility
SMILES: CCOC1(c2ccc(-c3cc4c(N5CCN(C(=O)O[C@@H]6CCOC6)CC5)ccnn4c3)nc2)CCN(C(C)C)CC1 [fumarate]

- physical stability on humidity exposure ([3]; listed as maleic acid): deliquesced
SMILES: CCOC1(c2ccc(-c3cc4c(N5CCN(C(=O)O[C@@H]6CCOC6)CC5)ccnn4c3)nc2)CCN(C(C)C)CC1 [maleate]
- physical stability on humidity exposure [3]: deliquescence; also recorded: deliquesced
